For the experiment, the system named is Phytophthora sojae. As to the kind of experiment: Antioomycete activity against Phytophthora sojae P6497 after 48 to 96 hrs by disc diffusion method. In kind it is functional.

These results are taken from ChEMBL document CHEMBL1154221, “Farinomalein, a maleimide-bearing compound from the entomopathogenic fungus Paecilomyces farinosus” (2009).

For `CC(C)C1=CC(=O)N(CCC(=O)O)C1=O` [FARINOMALEIN], the MIC stood at 5 µg. With `C[C@@H]1[C@H](O)[C@@H](C)/C=C/C=C/C=C/C=C/C=C/C=C/C=C/[C@H](O[C@@H]2O[C@H](C)[C@@H](O)[C@H](N)[C@@H]2O)C[C@@H]2O[C@](O)(C[C@@H](O)C[C@@H](O)[C@H](O)CC[C@@H](O)C[C@@H](O)CC(=O)O[C@H]1C)C[C@H](O)[C@H]2C(=O)O` [AMPHOTERICIN B], the MIC is 10 µg.
